The values below come from patent US20250207175A1, “METHOD FOR DETECTING CONTAMINATING CARBOXYLESTERASE ACTIVITY” (Boehringer Ingelheim International GmbH, priority 2022, published 2025).

In series [1] the test system is porcine pancreatic lipase, PPL (crude extract). Put plainly: OPTS assay: enzymatic hydrolysis of OPTS by PPL. The class given is biochemical. As for the experimental part: An aqueous solution of commercially purchased porcine pancreatic lipase, PPL, was prepared (Sigma-Aldrich, US; 100-500 Units/mg protein). According to the manufacturer, this powder mainly contains triacylglycerol lipase, but since it is a homogenised powder from freeze-dried porcine pancreas (crude extract), it is likely to further contain other carboxylesterases and lipases. These enzymes hydrolyse fatty acid esters and this extract was therefore selected for functional tests.
To record the reaction kinetics of the substrate OPTS with PPL, an aqueous 10 mg/mL PPL solution was prepared by adding 10 mg PPL to 1 mL H2O. The suspension was vortexed for 2 min and centrifuged at 14,000×g for 5 min before the supernatant was removed.
A reaction mixture of 75 μL AMT buffer (pH=7), 165 μL H2O and 30 μL of an aqueous 10 mg*mL-1 PPL solution was started with the addition of 30 μL of a 250 μM OPTS solution. The increase in fluorescence was recorded over 30 min with 15 s measuring intervals (n=2). As control (blank) served a preparation without PPL (only with H2O). […] The calculated reaction rate is 2.89±0.08*10-5 units (μmol*min-1). […]
Further inhibition of the non-ionic detergent polysorbate 20 (Tween 20) was tested. […] No inhibition was observed until 50 μg/ml at pH 7.0, but higher concentrations reduced the fluorescence signal (FIG. 5B). […]

For series [2] the following is noted: derivable from literature; cited from earlier work.
Series [3] concerns contaminating host cell proteins with hydrolytic (lipase) activity in antibody solutions. Put plainly: 4-MUD assay on antibody preparations (drug substance samples). It counts as biochemical, CHO K1 or DG44 cells. Conditions: all 9 antibody samples; for effect of inhibitor on hydrolytic activity in the 9 antibody samples, 4-MUD assay: orlistat 10 μM, PMSF 1 mM, EDTA 10 mM. The text has this: In order to be able to determine the enzymatic activity, a substrate, 1-octanoyloxy-pyrene-3,6,8-trisulfonic acid trisodium salt (OPTS), was chosen. Its hydrolytic product, 1-hydroxypyrene-3,6,8-trisulfonic acid trisodium salt (HPTS), can be detected by fluorescence spectroscopy. The change in the fluorescence signal over time is directly related to the change in the concentration of free fluorophore. The conversion was made possible by setting up a calibration curve with a subsequent linear fit (R^2≥0.99). The experiments of the kinetics measurements with the OPTS/4-MUD substrates assay were performed in duplicates. The reaction mixture without the protein of interest, which served as the respective control, was subtracted from the protein-containing batch. The buffer used for OPTS measurements (hydrophilic substrate) contained 0.3 M HOAc, 0.3 M MES, 0.6 M TRIS and 0.6 M NaCl (4×AMT buffer; acetate, MES, TRIS). For 4-MUD substrate measurements (lipophilic substrate) 0.04 M CHAPS was added in addition. The buffer (AMT) was prepared in four-fold concentration (4×AMT) and was added at 25% (v/v) to the reaction mix. All measurements were carried out in multiwell plates with a preparation volume of 300 μL (75 μL 4×AMT buffer, 30 μL substrate, 75 μL enzyme-containing solution, x μL additive, 300 μL ad. H2O) Unless otherwise stated, all fluorescence spectroscopic measurements were performed using 96-well, clear-bottom, non-binding plates (Greiner, Austria) on a SpectraMax M3 PlateReader (Molecular Device, USA) and recorded using SoftMax Pro 7.0.3 software (Molecular Device, USA). The OPTS assay measurements were typically taken at 25° C., λex=403 nm and λem=512 nm and the 4-MUD assay measurements were taken at 25° C., λex=330 nm and λem=450 nm. For evaluation, the detected fluorescence signal for a reaction mix without protein of interest (control) was subtracted from the reaction mix with protein of interest (e.g. DS). Hydrolysis of the substrate has been measured by detecting the fluorescence intensity of the released chromophore (4-MU or HPTS) immediately following mixing in real-time for a few minutes up to 5 hours depending on fluorescence intensity. The changes in the fluorescence signal over time were subsequently converted to hydrolytic activity using previously established calibration curves with a linear fit (R^2≥0.99).
The target concentration of OPTS was 25 μM and the target concentration of 4-MUD was 30 μM. […]
(§1) To generate pH profiles of the protein solutions, kinetic measurements were carried out as described above at the indicated pH value. The added AMT buffer was adjusted to the pH indicated in a range of pH 4-8 (0.5 steps) and the kinetics were recorded for each pH value.

Series [4] relates to contaminating host cell proteins with hydrolase (carboxylesterase) activity in antibody solutions. Put plainly: OPTS assay on antibody preparations (drug substance samples). The class given is biochemical, CHO K1 or DG44 cells. The note with it: orlistat 10 μM, PMSF 1 mM, EDTA 10 mM; all 9 antibody samples. The text has this: In order to be able to determine the enzymatic activity, a substrate, 1-octanoyloxy-pyrene-3,6,8-trisulfonic acid trisodium salt (OPTS), was chosen. Its hydrolytic product, 1-hydroxypyrene-3,6,8-trisulfonic acid trisodium salt (HPTS), can be detected by fluorescence spectroscopy. The change in the fluorescence signal over time is directly related to the change in the concentration of free fluorophore. The conversion was made possible by setting up a calibration curve with a subsequent linear fit (R^2≥0.99). The experiments of the kinetics measurements with the OPTS/4-MUD substrates assay were performed in duplicates. The reaction mixture without the protein of interest, which served as the respective control, was subtracted from the protein-containing batch. The buffer used for OPTS measurements (hydrophilic substrate) contained 0.3 M HOAc, 0.3 M MES, 0.6 M TRIS and 0.6 M NaCl (4×AMT buffer; acetate, MES, TRIS). For 4-MUD substrate measurements (lipophilic substrate) 0.04 M CHAPS was added in addition. […] All measurements were carried out in multiwell plates with a preparation volume of 300 μL (75 μL 4×AMT buffer, 30 μL substrate, 75 μL enzyme-containing solution, x μL additive, 300 μL ad. H2O) Unless otherwise stated, all fluorescence spectroscopic measurements were performed using 96-well, clear-bottom, non-binding plates (Greiner, Austria) on a SpectraMax M3 PlateReader (Molecular Device, USA) and recorded using SoftMax Pro 7.0.3 software (Molecular Device, USA). […] For evaluation, the detected fluorescence signal for a reaction mix without protein of interest (control) was subtracted from the reaction mix with protein of interest (e.g. DS). Hydrolysis of the substrate has been measured by detecting the fluorescence intensity of the released chromophore (4-MU or HPTS) immediately following mixing in real-time for a few minutes up to 5 hours depending on fluorescence intensity. The changes in the fluorescence signal over time were subsequently converted to hydrolytic activity using previously established calibration curves with a linear fit (R^2≥0.99). […]

Series [5] relates to purified commercially available lipase (lysosomal lipase). The series is described as follows: 4-MUD assay on a purified commercially available lipase. It counts as biochemical. Conditions: 10 μM orlistat, 1 mM PMSF, 10 mM EDTA; pH 5.5. As for the experimental part: The target concentration of OPTS was 25 μM and the target concentration of 4-MUD was 30 μM. For preparing a master mix, 4×AMT buffer was mixed with the appropriate volume of H2O in a Falcon tube. The dialysed antibody (Ab) preparation samples (drug substance) or control solutions (75 μl) were transferred to 96 well plates. Optional inhibitors (10 μM orlistat, 1 mM PMSF and 10 mM EDTA) were added to the master mix comprising 4×AMT buffer and water and substrate (3 μl/sample 3 mM 4-MUD in DMSO or […] 250 μM OPTS in H2O, aliquoted and frozen). The 4-MUD substrate was stored at a concentrated stock solution comprising 3 mM 4-methylumbelliferyl decanoate (4-MUD; FM25973, Carbosynth) in DMSO resulting in a 100× stock solution for use comprising […] in DMSO. The 250 μM OPTS stock solution was prepared in H2O, aliquoted and frozen until use. […] The reaction was then started by adding the master mix (reaction solution) to the protein solution or control solution, respectively. The measurement was started immediately. The measuring time was 30 min and the measuring intervals 15 s. Stock solutions of the inhibitors were used as follows: 300 μM orlistat (Sigma-Aldrich, USA) in DMSO, 100 mM PMSF (Roth, Germany) in isopropanol and 500 mM EDTA (Sigma-Aldrich, USA) in H2O.
as §1
Further, a purified commercially available lipase with unknown substrate specificity was analysed using the 4-MUD and OPTS assay. First, hydrolysis of both soluble (OPTS) and hydrophobic (4-MUD) carboxyl esters, as well as the influence of orlistat, PMSF and EDTA on the hydrolytic activity of the lipase were investigated.
Furthermore, the lipase was tested for its pH dependence in the OPTS and 4-MUD substrate assays. For this purpose, the hydrolytic activity was examined at pH=4-8.

Entries after “also recorded” stand apart in the source; their conditions may differ. A value given as a limit tells only on which side of the number the result lay.

`C[C@H](CCC(=O)NCCC[N+](C)(C)CCCS(=O)(=O)[O-])[C@H]1CC[C@H]2[C@@H]3[C@H](O)C[C@@H]4C[C@H](O)CC[C@]4(C)[C@H]3C[C@H](O)[C@]12C` [CHAPS, 3-[(3-cholamidopropyl)dimethylammonio]-1-propanesulfonate]: the “activity in the presence of 10 mM CHAPS” value in series [1] (1 mg*mL-1 PPL, 25 μM OPTS, AMT pH 7, 10 mM CHAPS) is reported as 6.16*10^−7 units. In series [2], the CMC entry is on record as “about 6 mM”.
Turning to `C[C@H](CCC(=O)NCCC[N+](C)(C)CC(O)CS(=O)(=O)[O-])[C@H]1CC[C@H]2[C@@H]3[C@H](O)C[C@@H]4C[C@H](O)CC[C@]4(C)[C@H]3C[C@H](O)[C@]12C` (stereo partly drawn) [CHAPSO, 3-([3-Cholamidopropyl)dimethylammonio]-2-hydroxy-1-propanesulfonate], the CMC entry in series [2] is listed as “about 8 mM”.
In the case of `O=C(O)CN(CCN(CC(=O)O)CC(=O)O)CC(=O)O` [EDTA], the “effect of inhibitor on hydrolytic activity in the 9 antibody samples, 4-MUD assay” value (“effect of inhibitor … 4-MUD assay” for short) in series [3] was “hardly any inhibition; also recorded: no inhibition”. For the same molecule, the “effect of inhibitor on hydrolytic activity in the 9 antibody samples, OPTS assay” value (from here on “effect of inhibitor … OPTS assay”) in series [4] is given as “Neither orlistat, nor PMSF or EDTA significantly reduced; also recorded: no inhibition”. Further, the “influence of inhibitors on hydrolytic activity of the lipase, 4-MUD substrate” value (“influence of inhibitors” for short) in series [5] is “only minor effects”.
On to `O=S(=O)(F)Cc1ccccc1` [PMSF], for which the “effect of inhibitor … 4-MUD assay” value in series [3] is recorded as “sight inhibition”. For the same molecule, the “effect of inhibitor … OPTS assay” value in series [4] is listed as “Neither orlistat, nor PMSF or EDTA significantly reduced”. Besides, the “influence of inhibitors” value in series [5] is on record as “only minor effects”.
On to `CCCCCCCCCCCC(=O)OCCOCCOCCOCCOCCOCCOCCOCCOCCOCCOCCOCCOCCOCCOCCOCCOCCOCCOCCOCCOCC(OCCOCCOCCOCCOCCOCCOCCOCCOCCOCCOCCOCCOCCOCCOCCOCCOCCOCCOCCOCCO)C1OCC(OCCOCCOCCOCCOCCOCCOCCOCCOCCOCCOCCOCCOCCOCCOCCOCCOCCOCCOCCOCCO)C1OCCOCCOCCOCCOCCOCCOCCOCCOCCOCCOCCOCCOCCOCCOCCOCCOCCOCCOCCOCCO` (stereo not drawn) [Polysorbate 20, polyoxyethylene (20) sorbitan monolaurate], for which, in series [1] (PPL, pH 7.0, target concentrations 200 μg/mL to 0.098 μg/mL tested), the “concentration until which no inhibition was observed” value is at most 50 µg/mL.
On to `CCCCCCCCCCCC[N+](C)(C)CCCS(=O)(=O)[O-]` [Zwittergent 3-12, n-Dodecyl-N,N-dimethyl-3-ammonio-1-propanesulfonate], for which, in series [2], the CMC was 2 to 4 mM.
Regarding `CCCCCCCCCCC[C@@H](C[C@@H]1OC(=O)[C@H]1CCCCCC)OC(=O)[C@H](CC(C)C)NC=O` [orlistat], in series [3] (10 μM orlistat, % of hydrolysis activity without inhibitor), the “residual activities with orlistat” value is 18-21%. In series [3], the “effect of inhibitor … 4-MUD assay” value is given as “pronounced inhibition; also recorded: strong inhibition”. Moreover, the “effect of inhibitor … OPTS assay” value in series [4] is listed as “Neither orlistat, nor PMSF or EDTA significantly reduced”. Besides, the “influence of inhibitors” value in series [5] was “almost completely inhibited”.
